Patent US6251919A, “Heterocyclic substituted aniline calcium channel blockers” (Warner-Lambert, priority 1999, dated 2001)
Where “and” joins values, the source holds several entries; their conditions need not be identical. Identical values can stand only once.

Molecular target: T1, N-type Ca^2+ channel in IMR-32 cells (Homo sapiens, UniProt Q00975)
T1 construct: host or cells: IMR-32 (differentiated with dibutyryl cAMP and bromodeoxyuridine)
Assay: N-type Ca2+ channel blockade in IMR-32 cells (fluorescent Ca2+ indicator Indo-1)
Format: cell-based
Details: 5 μM nitrendipine present; for inhibition at 1 µM: IMR-32, 1 μM; for inhibition at 10 µM: IMR-32, 10 μM

T1 sequence (Q00975 whole entry): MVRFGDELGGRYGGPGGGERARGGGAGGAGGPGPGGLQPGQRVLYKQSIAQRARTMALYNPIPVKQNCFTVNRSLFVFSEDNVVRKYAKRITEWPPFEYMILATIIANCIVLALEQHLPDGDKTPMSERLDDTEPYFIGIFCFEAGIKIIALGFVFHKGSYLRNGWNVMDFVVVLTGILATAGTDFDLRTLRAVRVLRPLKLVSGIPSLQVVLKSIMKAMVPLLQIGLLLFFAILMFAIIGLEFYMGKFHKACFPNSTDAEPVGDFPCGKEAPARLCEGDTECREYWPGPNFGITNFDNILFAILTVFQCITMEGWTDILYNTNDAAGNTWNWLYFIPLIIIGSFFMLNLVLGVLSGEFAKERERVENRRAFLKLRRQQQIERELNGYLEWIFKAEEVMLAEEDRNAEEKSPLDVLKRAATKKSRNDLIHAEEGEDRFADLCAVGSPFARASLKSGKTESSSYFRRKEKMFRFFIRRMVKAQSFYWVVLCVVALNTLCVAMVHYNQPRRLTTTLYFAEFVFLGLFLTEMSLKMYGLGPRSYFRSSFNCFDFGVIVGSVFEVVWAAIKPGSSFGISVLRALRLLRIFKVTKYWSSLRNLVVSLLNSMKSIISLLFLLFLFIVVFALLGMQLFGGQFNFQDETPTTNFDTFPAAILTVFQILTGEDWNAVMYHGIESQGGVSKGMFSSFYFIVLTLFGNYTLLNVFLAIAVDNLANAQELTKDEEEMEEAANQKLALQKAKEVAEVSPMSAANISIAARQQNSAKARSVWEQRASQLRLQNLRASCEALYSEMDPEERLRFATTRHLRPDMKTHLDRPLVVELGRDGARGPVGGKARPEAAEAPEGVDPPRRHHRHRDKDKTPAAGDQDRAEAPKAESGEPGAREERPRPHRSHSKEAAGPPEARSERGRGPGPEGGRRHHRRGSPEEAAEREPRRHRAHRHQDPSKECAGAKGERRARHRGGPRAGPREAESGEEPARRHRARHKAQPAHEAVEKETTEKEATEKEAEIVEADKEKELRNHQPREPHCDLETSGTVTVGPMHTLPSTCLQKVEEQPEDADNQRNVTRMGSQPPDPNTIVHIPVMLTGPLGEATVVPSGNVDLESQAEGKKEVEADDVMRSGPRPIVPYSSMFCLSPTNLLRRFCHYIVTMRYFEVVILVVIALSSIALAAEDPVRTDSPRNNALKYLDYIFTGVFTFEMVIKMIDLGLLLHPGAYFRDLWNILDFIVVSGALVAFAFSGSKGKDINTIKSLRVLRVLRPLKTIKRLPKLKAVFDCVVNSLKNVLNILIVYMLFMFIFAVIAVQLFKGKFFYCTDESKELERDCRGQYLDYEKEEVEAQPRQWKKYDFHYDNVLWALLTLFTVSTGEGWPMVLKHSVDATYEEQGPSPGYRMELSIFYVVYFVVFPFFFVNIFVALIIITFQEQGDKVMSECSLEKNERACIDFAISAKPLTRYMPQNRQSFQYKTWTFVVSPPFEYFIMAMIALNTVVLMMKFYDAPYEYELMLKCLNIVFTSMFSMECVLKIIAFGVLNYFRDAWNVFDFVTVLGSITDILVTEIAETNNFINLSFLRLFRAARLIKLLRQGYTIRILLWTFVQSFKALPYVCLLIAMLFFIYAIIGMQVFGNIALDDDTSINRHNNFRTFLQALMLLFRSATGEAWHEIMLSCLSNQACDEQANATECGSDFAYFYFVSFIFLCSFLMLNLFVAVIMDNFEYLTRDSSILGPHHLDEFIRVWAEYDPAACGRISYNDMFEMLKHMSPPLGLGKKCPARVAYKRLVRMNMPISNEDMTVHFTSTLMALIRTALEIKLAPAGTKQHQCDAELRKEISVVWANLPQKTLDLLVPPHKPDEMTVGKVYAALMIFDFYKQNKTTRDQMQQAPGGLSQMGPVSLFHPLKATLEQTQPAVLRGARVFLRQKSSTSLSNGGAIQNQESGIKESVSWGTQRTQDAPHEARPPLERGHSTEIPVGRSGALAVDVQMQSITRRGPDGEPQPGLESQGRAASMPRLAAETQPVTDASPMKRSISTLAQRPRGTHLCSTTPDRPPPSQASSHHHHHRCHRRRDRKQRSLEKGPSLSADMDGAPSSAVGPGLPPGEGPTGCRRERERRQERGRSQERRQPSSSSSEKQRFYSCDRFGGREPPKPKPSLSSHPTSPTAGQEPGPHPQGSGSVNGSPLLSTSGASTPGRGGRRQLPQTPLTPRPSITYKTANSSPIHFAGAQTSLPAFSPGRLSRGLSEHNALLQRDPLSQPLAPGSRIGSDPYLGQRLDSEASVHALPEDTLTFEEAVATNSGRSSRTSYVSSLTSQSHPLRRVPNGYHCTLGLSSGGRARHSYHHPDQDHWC

Structure (SMILES)	inhibition at 1 µM [%]	inhibition at 10 µM [%]	IC50 [nM]	IMR 32 % of Blockade @ 1 μM (1 μM)
CC(C)=CCN(c1ccc(OCc2ccccc2)cc1)C1CCN(C(=O)C2CCCC(C)N2CCC(C)C)CC1 (centres unmarked) [Example 16, {4-[(4-Benzyloxy-phenyl)-(3-methyl-but-2-enyl)-amino]-piperidin-1-yl}-[6methyl-1-(3-methyl-butyl)-piperidin-2-yl]-methanone]	45	78	–	–
CC(C)=CCN(c1ccc(OCc2ccccc2)cc1)C1CCN(C(=O)C2CCN(CCC(C)C)CC2)CC1 [Example 13, {4-[(4-Benzyloxy-phenyl)-(3-methyl-but-2-enyl)-amino]-piperidin-1-yl}-[1-(3-methyl-butyl)-piperidin-4-yl]-methanone]	37	75	–	–
CC(C)=CCN(c1ccc(C(C)C)cc1)C1CCN(Cc2ccc[nH]2)CC1 [Example 33, (4-Isopropyl-phenyl)-(3-methyl-but-2-enyl)-[1-(1H-pyrrol-2-ylmethyl)-piperidin-4-yl]-amine]	54	98	–	–
CC(C)=CCN(c1ccc(C(C)C)cc1)C1CCN(CCC(C)C)CC1 [Example 28, (4-Isopropyl-phenyl)-(3-methyl-but-2-enyl)-[1-(3-methyl-butyl)-piperidin-4-yl]-amine]	41	–	–	–
CC(C)=CCN(c1ccc(C(C)C)cc1)C1CCN(C(=O)[C@@H](O)CC(C)C)CC1 [Example 45, (S)-2-Hydroxy-1-{4-[(4-isopropyl-phenyl)-(3-methyl-but-2-enyl)-arnino]-piperidin-1-yl}-4-methyl-pentan-1-one]	28	85	–	–
CC(C)=CCN(c1ccc(OCc2ccccc2)cc1)C1CCN(Cc2ccc(C(C)(C)C)cc2)CC1 [Example 3, (4-Benzyloxy-phenyl)-[1-(4-tert-butyl-benzyl)-piperidin-4-yl]-(3-methyl-but-2-enyl)-amine]	96	–	–	–
CC(C)CCN(c1ccc(OCC2CCCCC2)cc1)C1CCN(CCC(C)(C)C)CC1 [Example 42, (4-Cyclohexylmethoxy-phenyl)-[1-(3,3-dimethyl-butyl)-piperidin-4-yl]-(3-methyl-butyl)-amine]	60	81	–	–
CC(C)=CCN(c1ccc(OCc2ccccc2)cc1)C1CCN(C2CCOCC2)CC1 [Example 10, (4-Benyloxy-phenyl)-(3-methyl-but-2-enyl)-[1-(tetrahydro-pyran4-yl)-piperidin-4-yl]-amine]	15	62	–	–
CC(C)=CCN(c1ccc(OCc2ccccc2)cc1)C1CCN(CCCc2ccccc2)CC1 [Example 22, (4-Benzyloxy-phenyl)-(3-methyl-but-2-enyl)-[1-(3-phenyl-propyl)-piperidin-4-yl]-amine]	–	–	500	–
CC(C)=CCN(c1ccc(C(C)C)cc1)C1CCN(Cc2ccc(F)cc2)CC1 [Example 29, [1-(4-Fluoro-benzyl)-piperidin-4-yl]-(4-isopropyl-phenyl)-(3-methyl-but-2-enyl)-amine]	17	84	–	–
CC(C)=CCN(c1ccc(OCc2ccccc2)cc1)C1CCCN(Cc2ccc(C(C)(C)C)cc2)C1 (centres unmarked) [Example 50, (4-Benzyloxy-phenyl)-[1-(4-tert-butyl-benzyl)-piperidin-3-yl]-(3-methyl-but-2-enyl)-amine]	86	96	–	–
CC(C)=CCN(c1ccc(C(C)C)cc1)C1CCN(Cc2cccnc2)CC1 [Example 30, (4-Isopropyl-phenyl)-(3-methyl-but-2-enyl)-(1-pyridin-3-ylmethyl-piperidin-4-yl)-amine]	18	79	–	–
CC(C)=CCN(c1ccc(OCc2ccccc2)cc1)C1CCN(C(=O)C2CN(C)CCN2CCC(C)C)CC1 (centres unmarked) [Example 14, {4-[(4-Benzyloxy-phenyl)-(3-methyl-but-2-enyl)-amino]-piperidin-1-yl}-[4-methyl-1-(3-methyl-butyl)-piperazin-2-yl]-methanone]	44	88	–	–
CC(C)=CCN(c1ccc(CCC(C)(C)C)cc1)C1CCN(CCC(C)C)CC1 [Example 37, [4-(3,3-Dimethyl-butyl)-phenyl]-(3-methyl-but-2-enyl)-[1-(3-methyl-butyl)-piperidin-4-yl]-amine]	31	92	–	–
CC(C)CCN(c1ccc(OCC2CCCCC2)cc1)C1CCN(CCC(C)O)CC1 (centres unmarked) [Example 41, 4-{4-[(4-Cyclohexylmethoxy-phenyl)-(3-methyl-butyl)-amino]-piperidin-1-yl}-butan-2-ol]	–	–	1500	–
CC(C)CCN(c1ccc(OCc2ccc(F)cc2)cc1)C1CCN(CCC(C)(C)C)CC1 [Example 43, [1-(3,3-Dimethyl-butyl)-piperidin-4-yl]-[4-(4-fluoro-benzyloxy)-phenyl]-(3-methyl-butyl)-amine]	65	99	–	–
CC(C)=CCN(c1ccc(OC(C)C)cc1)C1CCN(CCC(C)(C)C)CC1 [Example 36]	26	74	–	–
CC(C)=CCN(c1ccc(OCc2ccccc2)cc1)C1CCN(C(=O)C2CCCCN2CCC(C)C)CC1 (centres unmarked) [Example 11, {4-[(4-Benzyloxy-phenyl)-(3-methyl-but-2-enyl)-amino]-piperidin-1-yl}-[1-(3-methyl-butyl)-piperidin-2-yl]-methanone]	41	80	–	–

Structure (SMILES)	inhibition at 1 µM [%]	inhibition at 10 µM [%]	IC50 [nM]	IMR 32 % of Blockade @ 1 μM (1 μM)
CC(C)=CCN(c1ccc(CCC(C)(C)C)cc1)C1CCN(CCC(C)(C)C)CC1 [Example 38, [4-(3,3-Dimethyl-butyl)-phenyl]-[1-(3,3-dimethyl-butyl)-piperidin-4-yl]-(3-methyl-but-2-enyl)-amine]	38	83	–	–
CC(C)=CCN(c1ccc(OC(C)C)cc1)C1CCN(CCC(C)C)CC1 [Example 34, (4-Isopropoxy-phenyl)-(3-methyl-but-2-enyl)-[1-(3-methyl-butyl)-piperidin-4-yl]-amine]	23	76	–	–
CC(C)=CCN(c1ccc(OCc2ccccc2)cc1)C1CCN(Cc2ccco2)CC1 [Example 21, (4-Benzyloxy-phenyl)-(1-furan-2-ylmethyl-piperidin-4-yl)-(3-methyl-but-2-enyl)-amine]	–	–	3900	–
CC(C)=CCN(c1ccc(OCc2ccccc2)cc1)C1CCN(Cc2ccccn2)CC1 [Example 9, (4-Benzyloxy-phenyl)-(3-methyl-but-2-enyl)-(1-pyridin-2-ylmethyl-piperidin-4-yl)-amine]	30	100	–	–
CC(C)=CCN(c1ccc(OCc2ccccc2)cc1)C1CCN(Cc2ccc(S(C)(=O)=O)cc2)CC1 [Example 24]	–	–	1800	–
CC(C)=CCN(c1ccc(OCc2ccccc2)cc1)C1CCN(Cc2ccc(Br)cc2)CC1 [Example 4, (4-Benzyloxy-phenyl)-[1-(4-bromo-benzyl)-piperidin4-yl]-(3-methyl-but-2-enyl)-amine]	63	94	–	–
CC(C)=CCN(c1ccc(C(C)C)cc1)C1CCN(Cc2c[nH]cn2)CC1 [Example 31, [1-(1H-Imidazol-4-ylmethyl)-piperidin-4-yl]-(4-isopropyl-phenyl)-(3-methyl-but-2-enyl)-amine]	7	62	–	–
CC(C)=CCN(c1ccc(OCc2ccccc2)cc1)C1CCN(C(=O)C2CCCN(CCC(C)C)C2)CC1 (centres unmarked) [Example 12, {4-[(4-Benzyloxy-phenyl)-(3-methyl-but-2-enyl)-amino]-piperidin-1-yl}-[1-(3-methyl-butyl)-piperidin-3-yl]-methanone]	49	75	–	–
CC(C)=CCN(c1ccc(C(C)C)cc1)C1CCN(CCC(C)O)CC1 (centres unmarked) [Example 27, 4-{4[(4Isopropyl-phenyl)-(3-methyl-but-2-enyl)-amino]-piperidin-1-yl}-butan-2ol]	15	–	–	–
CC(C)=CCN(c1cccc(OCc2ccccc2)c1)C1CCN(CCC(C)(C)C)CC1 [Example 46, (3-Benzyloxy-phenyl)-[1-(3,3-dimethyl-butyl)-piperidin-4-yl]-(3-methyl-but-2-enyl)-amine]	55	98	–	–
CC(C)=CCN(c1ccc(C(C)C)cc1)C1CCN(C(C)CO)CC1 (centres unmarked) [Example 32, 2-{4-[(4-lsopropyl-phenyl)-(3-methyl-but-2-enyl)-amino]-piperidin-1-yl}-propan-1-ol]	0	70	–	–
CC(C)=CCN(c1ccc(OCc2ccccc2)cc1)C1CCN(C(=O)C2C(C)CCCN2CCC(C)C)CC1 (centres unmarked) [Example 18, {4-[(4-Benzyloxy-phenyl)-(3-methyl-but-2-enyl)-amino]-piperidin-1-yl}-[3-methyl-1-(3-methyl-butyl)-piperidin-2-yl]-methanone]	60	88	–	–
CC(C)=CCN(c1ccc(OCc2ccccc2)cc1)C1CCN(C(=O)C2CC(C)CCN2CCC(C)C)CC1 (centres unmarked) [Example 17, {4-[(4-Benzyloxy-phenyl)-(3-methyl-but-2-enyl)-amino]-piperidin-1-yl}-[4-methyl-1-(3-methyl-butyl)-piperidin-2-yl]-methanone]	86	76	–	–
CC(C)=CCN(c1ccc(CCC(C)(C)C)cc1)C1CCN(Cc2ccc[nH]2)CC1 [Example 47, [4-(3,3-Dimethyl-butyl)-phenyl]-(3-methyl-but-2-enyl)-[1-(1H-pyrrol-2-ylmethyl)-piperidin-4-yl]-amine]	–	–	900	–
CC(C)=CCN(c1ccc(C(C)C)cc1)C1CCN(CCC(C)(C)C)CC1 [Example 26, [1-(3,3-Dimethyl-butyl)-piperidin-4-yl]-(4-isopropyl-phenyl)-(3-methyl-but-2-enyl)-amine]	43	–	–	–
CC(C)=CCN(c1ccc(CCC(C)(C)C)cc1)C1CCN(Cc2ccc(N(C)C)cc2)CC1 [Example 39, [1-(4-Dimethylamino-benzyl)-piperidin-4-yl]-[4-(3,3-dimethyl-butyl)-phenyl]-(3-methyl-but-2-enyl)-amine]	–	–	–	85% and 60%
CC(C)CCN1CCC(N(CCC(C)C)c2ccc(OCC3CCCCC3)cc2)CC1 [Example 40, (4-Cyclohexylmethoxy-phenyl)-(3-methyl-butyl)-[1-(3-methyl-butyl)-piperidin-4-yl]-amine]	72	–	–	–
